One assay relates to thoracic aorta. Description: Inhibition of vitamin-D3-induced rise in Ca content of the thoracic aorta (Test 4). Conditions: for Ca content of the thoracic aorta (means± standard error): 10μg/kg 1-α hydroxyvitamin D3 orally once a day for 2 weeks; for ED50: Rattus norvegicus, po, 336 h, read-out: ED50, inhibition of vitamin-D3-induced rise in Ca content of the thoracic aorta.
The test system of assay [1] is rat aortic smooth muscle cells (SMC). Description: Inhibition of migration of smooth muscle cell (SMC), modified Boyden chamber (Test 3). Conditions: 5% zymosan-activated air pouch exudates as attractant, 8 hours, 37° C. The class given is cell-based, rat (male Wistar). The procedure: Inhibition of migration of smooth muscle cell (SMC)
Preparation of inflammatory exudates from zymosan-activated air pouch in rats:
Inflammatory exudates were obtained according to the method of Konno and Tsurufuji [Br. J. Pharmacol., 80 (1983) 269]. Seven-week-old male Wistar rats were injected subcutaneously with 12 ml of air on the back to make a pouch. Twenty-four hours later 6 ml of 1.6% (W/V) zymosan suspension in 0.5% (W/V) methyl cellulose solution in saline was injected into the pouch to induce inflammation. After 3 days the inflammatory exudates were collected with pipets and centrifuged for 15 minutes at 2,000 G. The supernatant was stored at -80° C. until used.
Culture of rat aortic smooth muscle cells (SMC):
Rat aortic SMC were isolated and cultured by the method of Ross [J. Cell Biol. 50 (1971) 172]. […]
Migration of SMC was examined in modified Boyden chambers using a filter membrane with pores of 8 μm diameter [Atherosclerosis, 43 (1982) 143]. […] SMC migration was quantitated microscopically by counting the number of cells that migrated into the filter to a depth of 30μm. Ten high-power fields (HPF, x 400) were examined for each filter and cell migration was expressed as cells per 10 HPF.

Assay [2] relates to rabbit carotid artery. Description: Induction of intimal thickening of rabbit carotid artery by polyethylene cuff treatment (Test 2). Conditions: intramuscular once a day, 3 weeks, index scale 0-3. The class given is in vivo, male Japanese white rabbits. The procedure: Induction of intimal thickening of rabbit carotid artery by polyethylene cuff treatment Eight (8) male Japanese white rabbits weighing about 2 kg were used for each test group. The rabbits were anesthetized with 12.5 mg/kg petobarbital and the left carotid artery was isolated with care not to injure the surrounding tissues. A polyethylene cuff (1.5 cm long PE280, inner diameter 2.15 mm, outer diameter 3.25 mm, made by Becton Dickinson & Co.) was placed around the artery according to the technique reported by Rosnowski et al. (CR. Acad, Sci. Paris, 271 (1970) 1467). The rabbits were maintained for 3 weeks on normal diet and water. Test Compounds and vehicles were given intramuscularly once a day starting from the day of cuff-placement. At the end of the 3rd week, the rabbits were heparinized (500 U, i.v.), and the artery was removed, washed free of blood with saline, fixed by immersion in 10% formalin and divided into 8 cross segments about 2 mm long. The segments were embedded in paraffin and cut into transverse sections. These sections were stained with orcein. About 70 transverse sections were prepared from each artery and used for the quantitation of the Arteriosclerotic Index. Quantitation of Arteriosclerotic Index The arterial sections were observed by light microscopy and the Arteriosclerotic Index was scored as follows. 0: No thickening. 1: slight hyperplasia in the subendothelial space with intima-media ratio of about 1/10. 2: several layers of cells in the subendothelial space with intima-media ratio of about 1/5, or parts of the subendothelial space with more hyperplasia. 3: sever hyperplasia throughout the subendothelial space with intima-media ratio of more than 1/3.

Assay [3] relates to rabbit carotid artery. Description: Effect on arteriosclerotic change induced by cuff in rabbit carotid artery (Test 1). Conditions: intramuscular, 5 days each week, 3 weeks, index scale 0-3. It is filed as in vivo. An excerpt:
Effect on arteriosclerotic change induced by cuff in rabbit carotid artery
The arteriosclerosis which is characterized by intimal thickening was made in rabbits (about 2 kg weight) by the following method.
Under pentobarbital anesthesia, the left carotid artery was isolated from the surrounding tissue, put into a cuff (1.5 cm long PE-280) through a longitudinal slit and was returned to the place as it was. Then, the wound was sutured and the rabbits were recovered and fed with normal diet. Three weeks after surgery, the rabbits were anesthetized with pentobarbital and sections were taken of the carotid artery. The part of the artery covered by a cuff was examined under microscope for the arteriosclerotic index which was rated at 0, 1, 2 and 3 according to the degree of intimal thickening. For each rabbit, about 30 transverse sections were taken at random, and the mean arteriosclerotic index was used for the determination of the effect. Test Compound was suspended in 0.5% methyl cellulose and injected intramuscularly for 5 days each week beginning from one day after cuff treatment to one day before sacrifice. The injection volume was adjusted to 0.5 ml/kg.

Broadly, the ED50 is the dose that gives a 50% effect, or the effect in half of the subjects. A word on the IC50: it is the midpoint of a concentration-inhibition curve. A higher IC50 goes with a need for much substance.

For the molecule `COC(=O)C1=C(C#N)NC(C)=C(C(=O)OC(C)C)C1c1cccc([N+](=O)[O-])c1` (centres unmarked) [Dihydropyridine Compound A, Isopropyl ester of 6-cyano-5-methoxycarbonyl-2-methyl-4-(3-nitrophenyl)-1,4-dihydropyridine-3-carboxylic acid], the “Ca content of the thoracic aorta (means± standard error)” value in the assay on thoracic aorta (0.1 mg/kg per os twice a day) is given as 94 ± 9 % of control; in the assay with thoracic aorta (1 mg/kg per os twice a day) it was 57 ± 13 % of control; with thoracic aorta (10 mg/kg per os twice a day), 27 ± 6 % of control; in the assay on thoracic aorta (100 mg/kg per os twice a day), 8 ± 3 % of control. In addition, in the assay on thoracic aorta, the ED50 worked out at 2.2 mg/kg. Moreover, the IC50 in assay [1] was determined as 33 pM. In addition, the figures for the “Arteriosclerotic Index (mean±standard error)” value in the assay on rabbit carotid artery [2] (1 mg/kg) and with rabbit carotid artery [2] (10 mg/kg) were 0.85 ±0.15 and 0.61 ±0.19, respectively. Also, the “Arteriosclerotic Index” value in the assay on rabbit carotid artery [3] (1.0 mg/kg) amounted to 0.85 ± 0.16; in the assay with rabbit carotid artery [3] (10 mg/kg) it was 0.61 ± 0.21.

`COC(=O)C1=C(C)NC(C)=C(C(=O)OC)C1c1ccccc1[N+](=O)[O-]` [Nifedipine, Dimethyl ester of 2,6-dimethyl-4-(2-nitrophenyl)-1,4-dihydropyridine-3,5-dicarboxylic acid, reference compound]: the “Ca content of the thoracic aorta (means± standard error)” value was 93 ± 15 % of control with thoracic aorta (1 mg/kg per os twice a day), 58 ± 15 % of control in the assay with thoracic aorta (10 mg/kg per os twice a day) and 30 ± 10 % of control with thoracic aorta (100 mg/kg per os twice a day). In addition, the ED50 in the assay with thoracic aorta stood at 23.2 mg/kg. In assay [1], this molecule gave an IC50 of 170 pM. For the same molecule, the results for the “Arteriosclerotic Index (mean±standard error)” value with rabbit carotid artery [2] (1 mg/kg) and with rabbit carotid artery [2] (10 mg/kg) were 0.94 ±0.21 and 1.19 ±0.26, respectively.

The values are drawn from US4859688A, “Method for the treatment and prevention of arteriosclerosis with nitrophenyl substituted dihydropyridines” (priority 1984, dated 1989).
